Data taken from US9688699B2, “3-(pyrimidine-2-yl)imidazo[1,2-a]pyridines” (Bayer Pharma Aktiengesellschaft, priority 2014, dated 2017).
Counter-ions that a name gives are not always drawn.

Assays:
[1] = target: T1, recombinant guanylate cyclase reporter cell line (Rattus norvegicus, UniProt P19686+P20595); test: Effect on a recombinant guanylate cyclase reporter cell line (B-2); type: cell-based; conditions: MEC = minimum effective concentration, in some cases mean values for individual determinations
T1 construct: expressed in transfected cells
T1 sequence (P19686 1-690): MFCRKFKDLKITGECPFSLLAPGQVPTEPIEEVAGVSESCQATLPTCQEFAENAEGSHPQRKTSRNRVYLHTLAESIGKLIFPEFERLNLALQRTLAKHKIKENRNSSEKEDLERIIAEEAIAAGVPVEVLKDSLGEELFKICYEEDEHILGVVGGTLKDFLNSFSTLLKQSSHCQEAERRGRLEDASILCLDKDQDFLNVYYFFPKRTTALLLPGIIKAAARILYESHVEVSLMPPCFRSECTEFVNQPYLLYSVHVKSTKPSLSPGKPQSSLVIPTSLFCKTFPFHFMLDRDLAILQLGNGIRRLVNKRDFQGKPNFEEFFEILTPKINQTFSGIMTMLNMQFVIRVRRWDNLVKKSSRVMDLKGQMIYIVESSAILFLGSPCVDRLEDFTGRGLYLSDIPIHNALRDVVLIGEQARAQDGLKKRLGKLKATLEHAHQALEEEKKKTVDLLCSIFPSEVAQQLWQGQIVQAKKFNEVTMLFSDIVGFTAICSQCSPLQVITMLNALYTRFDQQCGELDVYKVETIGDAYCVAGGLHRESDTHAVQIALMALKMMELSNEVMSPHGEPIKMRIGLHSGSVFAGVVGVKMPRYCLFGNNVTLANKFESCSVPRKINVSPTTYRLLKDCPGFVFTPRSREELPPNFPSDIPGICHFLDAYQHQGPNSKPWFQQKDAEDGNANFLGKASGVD
T1 sequence (P20595 1-619): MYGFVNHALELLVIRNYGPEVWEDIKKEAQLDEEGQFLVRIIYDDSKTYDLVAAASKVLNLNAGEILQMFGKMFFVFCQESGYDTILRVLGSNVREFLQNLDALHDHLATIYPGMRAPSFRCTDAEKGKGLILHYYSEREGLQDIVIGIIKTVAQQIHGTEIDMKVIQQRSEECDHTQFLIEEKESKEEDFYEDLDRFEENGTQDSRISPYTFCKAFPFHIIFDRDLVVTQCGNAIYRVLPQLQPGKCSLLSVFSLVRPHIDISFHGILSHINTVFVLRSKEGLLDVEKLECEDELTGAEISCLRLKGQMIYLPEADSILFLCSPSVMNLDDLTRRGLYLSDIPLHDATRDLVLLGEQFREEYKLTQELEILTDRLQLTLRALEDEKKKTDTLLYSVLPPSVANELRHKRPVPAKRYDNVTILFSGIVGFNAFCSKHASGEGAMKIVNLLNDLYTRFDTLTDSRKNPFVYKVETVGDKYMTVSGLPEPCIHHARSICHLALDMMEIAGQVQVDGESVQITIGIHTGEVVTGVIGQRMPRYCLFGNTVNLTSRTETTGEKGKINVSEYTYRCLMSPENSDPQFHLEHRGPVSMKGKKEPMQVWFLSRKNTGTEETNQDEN
Procedure, shortened: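 Cellular guanylate cyclase activity measured in a recombinant reporter cell line expressing rat soluble guanylate cyclase subunits. Values are minimum effective concentrations (MEC), some as means of individual determinations.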

[2] = target: T2, human phosphodiesterase 5 (PDE 5) (Homo sapiens, UniProt O76074); test: Inhibition of human phosphodiesterase 5 (PDE 5) (B-3); type: biochemical; conditions: PDE 5 preparation from human platelets; [8-3H] cGMP substrate, SPA; in some cases means of individual determinations
T2 construct: PDE 5 preparations are obtained from human platelets by disruption; from tissue; host or cells: human platelets (Mono Q ion exchange fractions with PDE 5 activity)
Procedure, shortened: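 Enzyme partially purified from human platelets by Mono Q ion exchange; [8-3H]cGMP substrate (0.025 μCi), Tris-HCl pH 7.5 with MgCl2/EDTA, <70% conversion, 60 min at room temperature. Compounds tested at 4 to 0.0018 μM final; yttrium SPA bead read-out, IC50 from concentration–% inhibition plot.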

Row | SMILES | MEC [1] [µM] | IC50 [2] [nM]
1 | COCC(C)(N)CNc1nc(-c2c(C)nc3c(OCc4c(F)cccc4F)cccn23)nc2c1C(C)(C)C(=O)N2 (single isomer, unassigned; ent-4) [Example 46, ent-4-[(2-Amino-3-methoxy-2-methylpropyl)amino]-2-{8-[(2,6-difluorobenzyl)oxy]-2-methylimidazo[1,2-a]pyridin-3-yl}-5,5-dimethyl-5,7-dihydro-6H-pyrrolo[2,3-d]pyrimidin-6-one (Enantiomer B)] | 1 | 120
2 | Cc1nc2c(OCc3c(F)ccc(F)c3F)cccn2c1-c1nc2c(c(C(=O)NCC(C)(C)N)n1)C(C)(C)C(=O)N2 [Example 58, N-(2-amino-2-methylpropyl)-5,5-dimethyl-2-{2-methyl-8-[(2,3,6-trifluorobenzyl)oxy]imidazo[1,2-a]pyridin-3-yl}-6-oxo-6,7-dihydro-5H-pyrrolo[2,3-d]pyrimidin-4-carboxamide trifluoroacetate] | 3 | 5.2
3 | Cc1nc2c(OCc3c(F)ccc(F)c3F)cccn2c1-c1ncc2c(n1)NC(=O)C2(C)C [Example 75, 5,5-Dimethyl-2-{2-methyl-8-[(2,3,6-trifluorobenzyl)oxy]imidazo[1,2-a]pyridin-3-yl}-5,7-dihydro-6H-pyrrolo[2,3-d]pyrimidin-6-one formate] | 10 | 370
4 | Cc1nc2c(OCc3c(F)ccc(F)c3F)cccn2c1-c1nc(O)c2c(n1)NC(=O)C2(C)C [Example 11, 4-Hydroxy-5,5-dimethyl-2-{2-methyl-8-[(2,3,6-trifluorobenzyl)oxy]imidazo[1,2-a]pyridin-3-yl}-5,7-dihydro-6H-pyrrolo[2,3-d]pyrimidin-6-one] | 3 | 260
5 | Cc1nc2c(OCc3c(F)cccc3F)cccn2c1-c1nc(CNC(=O)C2CC2)c2c(n1)NC(=O)C2(C)C [Example 66, N-[(2-{8-[(2,6-Difluorobenzyl)oxy]-2-methylimidazo[1,2-a]pyridin-3-yl}-5,5-dimethyl-6-oxo-6,7-dihydro-5H-pyrrolo[2,3-d]pyrimidin-4-yl)methyl]cyclopropanecarboxamide] | 3 | 48
6 | Cc1nc2c(OCc3c(F)cccc3F)cccn2c1-c1nc(C#N)c2c(n1)NC(=O)C2(C)C [Example 48, 2-{8-[(2,6-Difluorobenzyl)oxy]-2-methylimidazo[1,2-a]pyridin-3-yl}-5,5-dimethyl-6-oxo-6,7-dihydro-5H-pyrrolo[2,3-d]pyrimidine-4-carbonitrile] | 1 | 190
7 | COc1ccc(CC(C)(N)CNc2nc(-c3c(C)nc4c(OCc5c(F)cccc5F)cccn34)nc3c2C(C)(C)C(=O)N3)cc1 (racemic) [Example 20, rac-4-{[2-amino-3-(4-methoxyphenyl)-2-methylpropyl]amino}-2-{8-[(2,6-difluorobenzyl)oxy]-2-methylimidazo[1,2-a]pyridin-3-yl}-5,5-dimethyl-5,7-dihydro-6H-pyrrolo[2,3-d]pyrimidin-6-one] | 3 | 110
8 | Cc1nc2c(OCc3c(F)ccc(F)c3F)cccn2c1-c1nc(NCC(C)(C)O)c2c(n1)NC(=O)C2(C)C [Example 34, 4-[(2-hydroxy-2-methylpropyl)amino]-5,5-dimethyl-2-{2-methyl-8-[(2,3,6-trifluorobenzyl)oxy]imidazo[1,2-a]pyridin-3-yl}-5,7-dihydro-6H-pyrrolo[2,3-d]pyrimidin-6-one] | 1 | 5.3
9 | Cc1nc2c(OCc3c(F)cccc3F)cccn2c1-c1nc(NCCO)c2c(n1)NC(=O)C2(C)C [Example 24, 2-{8-[(2,6-difluorobenzyl)oxy]-2-methylimidazo[1,2-a]pyridin-3-yl}-4-[(2-hydroxyethyl)amino]-5,5-dimethyl-5,7-dihydro-6H-pyrrolo[2,3-d]pyrimidin-6-one trifluoroacetate] | 0.3 | 1.3
10 | COCC(C)(N)CNc1nc(-c2c(C)nc3c(OCc4c(F)cccc4F)cccn23)nc2c1C(C)(C)C(=O)N2 (racemic) [Example 21, rac-4-[(2-amino-3-methoxy-2-methylpropyl)amino]-2-{8-[(2,6-difluorobenzyl)oxy]-2-methylimidazo[1,2-a]pyridin-3-yl}-5,5-dimethyl-5,7-dihydro-6H-pyrrolo[2,3-d]pyrimidin-6-one] | 0.3 | 22
11 | Cc1nc2c(OCc3c(F)cccc3F)cccn2c1-c1nc(NCC(N)C(F)(F)C(F)F)c2c(n1)NC(=O)C2(C)C (racemic) [Example 27, rac-4-[(2-amino-3,3,4,4-tetrafluorobutyl)amino]-2-{8-[(2,6-difluorobenzyl)oxy]-2-methylimidazo[1,2-a]pyridin-3-yl}-5,5-dimethyl-5,7-dihydro-6H-pyrrolo[2,3-d]pyrimidin-6-one] | 3 | 23
12 | Cc1nc2c(OCc3c(F)ccc(F)c3F)cccn2c1-c1nc2c(c(C(=O)O)n1)C(C)(C)C(=O)N2 [Example 54, 5,5-Dimethyl-2-{2-methyl-8-[(2,3,6-trifluorobenzyl)oxy]imidazo[1,2-a]pyridin-3-yl}-6-oxo-6,7-dihydro-5H-pyrrolo[2,3-d]pyrimidine-4-carboxylic acid] | 10 | 420
13 | Cc1nc2c(OCc3c(F)ccc(F)c3F)cccn2c1-c1nc2c(c(C(N)=O)n1)C(C)(C)C(=O)N2 [Example 53, 5,5-Dimethyl-2-{2-methyl-8-[(2,3,6-trifluorobenzyl)oxy]imidazo[1,2-a]pyridin-3-yl}-6-oxo-6,7-dihydro-5H-pyrrolo[2,3-d]pyrimidine-4-carboxamide] | 0.3 | 4.3
14 | Cc1nc2c(OCc3c(F)ccc(F)c3F)cccn2c1-c1nc2c(c(C(=O)N3CCC(O)C3)n1)C(C)(C)C(=O)N2 (racemic) [Example 62, rac-4-[(3-hydroxypyrrolidin-1-yl)carbonyl]-5,5-dimethyl-2-{2-methyl-8-[(2,3,6-trifluorobenzyl)oxy]imidazo[1,2-a]pyridin-3-yl}-5,7-dihydro-6H-pyrrolo[2,3-d]pyrimidin-6-one] | 3 | 400
